Earlier results in PMC11181328 (Journal of Medicinal Chemistry, 2024).

Experiments:
hERG = hERG (Homo sapiens, UniProt Q12809); conditions: read-out: hERG IC50; cited from earlier work
male Swiss Webster mice [1] = conditions: warm-water tail immersion; cited from earlier work
male Swiss Webster mice [2] = conditions: 0.1 mg/kg; cited from earlier work
[3] = same conditions; cited from earlier work
DOR = target: T1, DOR (Homo sapiens, UniProt P41143); conditions: read-out: radioligand binding affinity (Ki, nM) DOR; [3H]diprenorphine; cited from earlier work
T1 construct: expressed in transfected cells; membrane homogenate
T1 sequence (P41143 whole entry): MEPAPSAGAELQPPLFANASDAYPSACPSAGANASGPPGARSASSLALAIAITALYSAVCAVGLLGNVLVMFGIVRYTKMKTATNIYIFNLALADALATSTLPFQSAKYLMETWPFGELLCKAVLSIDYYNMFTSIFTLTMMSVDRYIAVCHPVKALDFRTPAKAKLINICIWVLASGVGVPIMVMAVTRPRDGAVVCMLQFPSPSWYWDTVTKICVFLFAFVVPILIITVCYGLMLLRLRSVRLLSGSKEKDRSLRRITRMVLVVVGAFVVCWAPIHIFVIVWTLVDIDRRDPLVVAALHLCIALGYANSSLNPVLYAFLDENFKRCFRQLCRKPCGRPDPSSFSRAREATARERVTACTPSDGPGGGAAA

Chain of hERG (Q12809 whole entry): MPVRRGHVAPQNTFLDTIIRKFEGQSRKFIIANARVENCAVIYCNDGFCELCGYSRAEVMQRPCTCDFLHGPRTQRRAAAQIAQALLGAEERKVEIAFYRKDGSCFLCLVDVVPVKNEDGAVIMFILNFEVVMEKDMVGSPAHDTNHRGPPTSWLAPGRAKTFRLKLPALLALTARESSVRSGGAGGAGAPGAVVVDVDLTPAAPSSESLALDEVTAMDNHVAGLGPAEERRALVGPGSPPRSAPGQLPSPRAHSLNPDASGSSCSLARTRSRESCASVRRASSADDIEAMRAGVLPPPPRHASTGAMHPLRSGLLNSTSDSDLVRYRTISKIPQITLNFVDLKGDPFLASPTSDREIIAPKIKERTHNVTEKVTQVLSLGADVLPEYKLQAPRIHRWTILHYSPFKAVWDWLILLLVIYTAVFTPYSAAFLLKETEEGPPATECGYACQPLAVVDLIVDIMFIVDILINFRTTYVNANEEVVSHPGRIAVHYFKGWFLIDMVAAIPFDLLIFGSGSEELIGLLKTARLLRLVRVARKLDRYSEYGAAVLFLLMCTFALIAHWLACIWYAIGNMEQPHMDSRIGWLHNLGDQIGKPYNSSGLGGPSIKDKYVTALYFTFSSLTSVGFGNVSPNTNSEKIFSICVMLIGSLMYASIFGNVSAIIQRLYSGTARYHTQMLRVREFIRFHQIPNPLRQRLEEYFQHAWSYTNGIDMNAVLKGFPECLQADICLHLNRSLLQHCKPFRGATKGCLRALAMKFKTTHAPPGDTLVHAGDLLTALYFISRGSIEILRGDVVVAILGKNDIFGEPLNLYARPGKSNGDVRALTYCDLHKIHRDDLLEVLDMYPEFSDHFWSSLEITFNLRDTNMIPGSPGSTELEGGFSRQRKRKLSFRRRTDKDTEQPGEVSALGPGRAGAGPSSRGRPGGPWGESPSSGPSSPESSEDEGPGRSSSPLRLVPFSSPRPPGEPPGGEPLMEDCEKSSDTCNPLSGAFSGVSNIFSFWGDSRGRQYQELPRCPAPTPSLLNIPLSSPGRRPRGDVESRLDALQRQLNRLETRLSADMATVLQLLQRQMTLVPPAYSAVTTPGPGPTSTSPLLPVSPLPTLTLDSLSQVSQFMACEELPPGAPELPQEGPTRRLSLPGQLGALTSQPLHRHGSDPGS

For `CN(C(=O)/C=C/c1ccoc1)[C@H]1CC[C@@]2(O)[C@H]3Cc4ccc(O)c5c4[C@@]2(CCN3CC2CC2)[C@H]1O5.Cl` [NMF], the IC50 (hERG) is listed as 6.7 µM, the “potency ED50 [95% CI] mg/kg” value (male Swiss Webster mice [1]) is listed as 0.037 [0.014–0.096] mg/kg and the “duration of antinociceptive effects” value (male Swiss Webster mice [2]) is listed as 1 h. For the same compound, the “half-life in rat liver S9 fraction” value [3] was 10 min and the Ki (DOR) was 0.64 ± 0.11 nM.
